We go through 16 compounds from article PMC8286840, “Identifying SARS-CoV-2 antiviral compounds by screening for small molecule inhibitors of Nsp3 papain-like protease” (Biochemical Journal, 2021).

Assay [1] deals with T1, SARS-CoV-2 PLpro (nsp3 1564–1878) (Severe acute respiratory syndrome coronavirus 2, UniProt P0DTD1). Description: biochemical. On the set-up: FRET-quenched peptide (Pro3) cleavage by PLpro, 10 min pre-incubation, slope over 20 min, normalised to no-compound control. Particulars: low concentration screen, read-out: % of control remaining.
Assay [2] concerns the target T1, SARS-CoV-2 PLpro (nsp3 1564–1878). Description: biochemical. On the set-up: FRET-quenched peptide (Pro3) cleavage by PLpro, 10 min pre-incubation, slope over 20 min, normalised to no-compound control. The following applies: high concentration screen, read-out: % of control remaining.

Counter-ions that a name gives are not always drawn. Like-named read-outs stand apart in the source and are kept apart here.

Regarding `CC1=NN=C(c2ccc(N)cc2)c2cc3c(cc2C1)OCO3` [GYKI 52466 hydrochloride], in assay [1] (Well no.=748), the remaining activity at 1.25 µM is 92.9%. In addition, in assay [2] (Well no.=748), the remaining activity at 3.75 µM worked out at 92.5%.
With `CC1Cc2cc3c(cc2C(c2ccc(N)cc2)=NN1)OCO3` (centres unmarked) [GYKI 52895], the remaining activity at 1.25 µM in assay [1] (Well no.=414) came to 95.2%. The remaining activity at 3.75 µM in assay [2] (Well no.=414) was determined as 95.8%.
Turning to `N[C@@H]1C=CC=C(C(=O)O)C1` [Gabaculine hydrochloride], in assay [1] (Well no.=13), the remaining activity at 1.25 µM is 105%. Moreover, the remaining activity at 3.75 µM in assay [2] (Well no.=13) was 105%.
In the case of `NCC1(CC(=O)O)CCCCC1` [Gabapentin], the remaining activity at 1.25 µM in assay [1] (Well no.=510) stood at 104%; in assay [1] (Well no.=1755) it was 98.1%. Further, the results for the remaining activity at 3.75 µM in assay [2] (Well no.=510) and in assay [2] (Well no.=1755) were 105% and 100%, respectively.
As to `CCOC(=O)c1ccc(OC(=O)CCCCCNC(=N)N)cc1` [Gabexate mesylate], in assay [1] (Well no.=5092), the remaining activity at 1.25 µM is 97.5%. The remaining activity at 3.75 µM in assay [2] (Well no.=5092) worked out at 102%.
On to `COc1ccc2c3c1O[C@H]1C[C@@H](O)C=C[C@@]31CCN(C)C2` [Galanthamine], for which the remaining activity at 1.25 µM in assay [1] (Well no.=1707) was found to be 105%. In addition, the remaining activity at 3.75 µM in assay [2] (Well no.=1707) amounted to 101%.
Take `C[C@]12CC[C@H](O)CC1=CC[C@@H]1[C@@H]2CC[C@]2(C)C(n3cnc4ccccc43)=CC[C@@H]12` [Galeterone (TOK-001)]: the remaining activity at 1.25 µM in assay [1] (Well no.=5127) amounted to 97.5%. For the same compound, the remaining activity at 3.75 µM in assay [2] (Well no.=5127) came out at 99.7%.
As to `CC[N+](CC)(CC)CCOc1cccc(OCC[N+](CC)(CC)CC)c1OCC[N+](CC)(CC)CC` [Gallamine triethiodide], the values for the remaining activity at 1.25 µM in assay [1] (Well no.=717) and in assay [1] (Well no.=6753) were 91.1% and 105%, respectively. In addition, the remaining activity at 3.75 µM in assay [2] (Well no.=717) is 87.8%; in assay [2] (Well no.=6753) it was 103%.
For `CC(C)=CCC[C@]1(C)C=Cc2c(O)c3c(c(CC=C(C)C)c2O1)O[C@]12C(=C[C@@H]4C[C@H]1C(C)(C)O[C@@]2(C/C=C(/C)C(=O)O)C4=O)C3=O` [Gambogic Acid], the remaining activity at 1.25 µM in assay [1] (Well no.=3723) was found to be 94.4%; in assay [1] (Well no.=6926), 96.6%. Besides, the remaining activity at 3.75 µM in assay [2] (Well no.=3723) amounted to 97.8%; in assay [2] (Well no.=6926) it was 91.9%.
Turning to `CC(=O)[C@H]1CC[C@H]2[C@@H]3CC[C@H]4C[C@](C)(O)CC[C@]4(C)[C@H]3CC[C@]12C` [Ganaxolone], in assay [1] (Well no.=5901), the remaining activity at 1.25 µM is 96.3%. The remaining activity at 3.75 µM in assay [2] (Well no.=5901) is 94%.
For `Nc1nc2c(ncn2COC(CO)CO)c(=O)[nH]1` [Ganciclovir], the remaining activity at 1.25 µM was found to be 99.1% in assay [1] (Well no.=667), 97.3% in assay [1] (Well no.=2168) and 97.2% in assay [1] (Well no.=8062). The remaining activity at 3.75 µM amounted to 97.3% in assay [2] (Well no.=667), 99.3% in assay [2] (Well no.=2168) and 97.7% in assay [2] (Well no.=8062).
With `CC(C)c1cc(-c2n[nH]c(=O)n2-c2ccc3c(ccn3C)c2)c(O)cc1O` [Ganetespib (STA-9090)], the remaining activity at 1.25 µM in assay [1] (Well no.=9028) came out at 85.9%. For the same compound, in assay [2] (Well no.=9028), the remaining activity at 3.75 µM was 86.1%.
With `CCNCc1nc2c(N)nc3ccccc3c2n1CC(C)(C)O` [Gardiquimod trifluoroacetate], the remaining activity at 1.25 µM in assay [1] (Well no.=8131) was 105%. In addition, the remaining activity at 3.75 µM in assay [2] (Well no.=8131) was 103%.
Take `COc1c(N2CCNC(C)C2)c(F)cc2c(=O)c(C(=O)O)cn(C3CC3)c12` (centres unmarked) [Gatifloxacin]: the remaining activity at 1.25 µM in assay [1] (Well no.=2170) was found to be 103%. Also, the remaining activity at 3.75 µM in assay [2] (Well no.=2170) is 104%.
Consider `COc1cc2ncnc(Nc3ccc(F)c(Cl)c3)c2cc1OCCCN1CCOCC1` [Gefitinib], for which the results for the remaining activity at 1.25 µM in assay [1] (Well no.=1579) and in assay [1] (Well no.=2743) were 102% and 101%, respectively. The figures for the remaining activity at 3.75 µM in assay [2] (Well no.=1579) and in assay [2] (Well no.=2743) were 102% and 101%, respectively.
`COC1=C2C[C@@H](C)C[C@H](OC)[C@H](O)[C@@H](C)/C=C(\C)[C@H](OC(N)=O)[C@@H](OC)/C=C\C=C(/C)C(=O)NC(=CC1=O)C2=O` [Geldanamycin]: the remaining activity at 1.25 µM in assay [1] (Well no.=5019) is 98.5%. The remaining activity at 3.75 µM in assay [2] (Well no.=5019) turned out to be 101%.
